Measurements as given in patent US20230095509A1, “NON-FIBRILLAR HEMOGLOBIN S OLIGOMERS AND METHODS TO IDENTIFY MODULATORS OF HEMOGLOBIN S POLYMERIZATION” (REGENTS OF THE UNIVERSITY OF MINNESOTA, priority 2021, published 2023).
Entries after “also recorded” stand apart in the source; their conditions may differ.

Key:
[1] = biological target: T1, deoxyHbS oligomers (HbS-rhodamine red / HbS-Cy5) (Homo sapiens, UniProt P68871+P69905, E7V); assay: Fluorescence lifetime (FLT) FRET assay of deoxyHbS oligomerization (LOPAC screen and dose response); format: biochemical; conditions: for FRET efficiency of HbS under deoxy conditions: known polymerization inhibitors as controls, FIG. 1D; for FRET efficiency in dose response: 0.1 to 1000 μM, 2 hours at room temperature, then degassed, FIG. 4B
T1 construct: purchased Sigma
Method: Development of HTS platform for identification of small molecules that inhibit in vitro HbS nucleation: Sickle hemoglobin (HbS) (sigma) was labeled with either fluorescent donor (rhodamine red) or acceptor (Cy5) dyes (Thermo fisher scientific) via a cysteine thiol group. For labeling, lyophilized HbS (10 mg/ml) was dissolved in PBS (Sigma) and then centrifuged at 13000 g for five minutes at 4° C. to remove the debris. After centrifugation protein sample was incubated with TCEP (0.5-1 mM) for 20 minutes at room temperature to reduce the cysteine side-chain. This protein mixture was incubated with 1.5 mM dye (dissolved in DMSO or water) for two hours in the dark at room temperature or overnight at 4° C. Unreacted free dye was removed by dialysis against PBS. The degree of labeling was calculated by comparing the absorption of the fluorophore conjugated hemoglobin at 280 nm to the absorbance of the dye at its maximum wavelength. The dye concentration was measured by absorbance, using extinction coefficients of 250,000 M −1 cm -1 for Cy5 conjugates and 88000 M −1 cm -1 for Rhodamine Red conjugates.
High-Throughput Screening of LOPAC Library to Identify Compounds That Inhibit HbS Oligomerization Under Deoxy Condition: The LOPAC compounds (Thermo Fisher Scientific) were received in 96-well plates. Assay plates were prepared by transferring 5 nL of the 10 mM compound stocks or DMSO from the source plates to 1536-well black polypropylene plates (Greiner), using an Echo 550 acoustic dispenser (Labcyte). During screening, donor sample (HbS/Rhodamine Red) was mixed with acceptor (HbS/Cy5) at 1:5 ratios. Then protein samples were dispensed (5 μL, 25 μM) by a Multidrop Combi Reagent Dispenser (Thermo Fisher Scientific) into the 1536-well assay plates containing the compounds and incubated at room temperature for two hours. After incubation, protein samples were degassed for 10-15 minutes using vacuum argon degassing method. Lifetime measurements were taken by the fluorescence lifetime plate reader (Fluorescence Innovations, Inc).
Fluorescence Data Acquisition: We tested the functionality of the HbS FRET pair by measuring lifetimes of oxy-and deoxy HbA and HbS using a fluorescence lifetime plate reader (FIG. 3A). Lifetimes are reciprocally related to FRET, so a decrease in lifetime corresponds to an increase in FRET. Donor fluorescence was excited with a 532 nm laser (Teem Photonics SNG-20F-100, Meylan, France), delivering pulses of -0.3 μJ energy at a 20 kHz repetition rate, and emission was filtered with 546 nm long pass and 586/20 nm band pass filters. This filter was selected to exclude acceptor fluorescence, as only the lifetime of the donor fluorescent protein is required to calculate FRET (Equation (1)). The photomultiplier tube (PMT) voltage was adjusted so that the peak signals of the instrument response function (IRF) and FRET biosensor were similar.
High-Throughput Screening Data Analysis: Time resolve-fluorescence waveforms for each well were fitted with single-exponential decays using least-squares minimization global analysis software (Petersen et al., F2014, Rev Sci Instrum 85, 113101). FRET efficiency (E) was determined as the fractional decrease of donor lifetime (T_D ), due to the presence of acceptor fluorophore (T_DA) using equation 1: […]
These drug compounds were dissolved in DMSO to make 20 mM stock solution. Hits were screened at seven different concentrations. Protein samples were dispensed into the 96-well assay plates and incubated with hit compounds at room temperature for two hours. After incubation, protein samples were degassed for 10 minutes using vacuum argon degassing method. Lifetime measurements were taken by the fluorescence lifetime plate reader (Fluorescence Innovations, Inc).

[2] = system: RBC from healthy donors (genotype HbAA); assay: Microfluidic measurement of RBC oxygen saturation (Quantitative Absorption Cytometry, P50); format: cell-based, human; conditions: for P50 (hemoglobin oxygen binding affinity) relative to control: 500 μM, RBC from 4 healthy donors, 1 hr at 37C at 25% hematocrit, diluted to 1% hematocrit with drug, FIG. 10
Method: Measurement of hemoglobin oxygen saturation in RBC from 4 healthy donors (genotype HbAA). RBC at 25% hematocrit were incubated with 500 uM voxelotor, chlormezanone, gabazine, or DMSO (control) for 1 hr at 37C and then diluted to 1% hematocrit with drug.
Microfluidic Measurement of RBC Oxygen Saturation: The Quantitative Absorption Cytometry assay described previously (Di Caprio et al., 2019, Proc Natl Acad Sci USA 116, 25236-25242; Di Caprio et al., 2015, Proc Natl Acad Sci USA 112, 9984-9989), takes images of single red blood cells (RBC) under alternating 410 nm and 430 nm LEDs. Due to the unique absorption spectra of oxy and deoxy hemoglobin the transmitted light at 410 nm and 430 nm permits measurement of the single cell saturation can be calculated. The cells are perfused through a microfluidic device with oxygen control that permits measurement of the oxygen saturation of a population of RBC under defined oxygen tension. The polydimethysiloxane (PDMS) microfluidic device for this assay comprises two layers- a gas layer and a blood layer bonded to a glass coverslip. These two layers are separated by 100 μm of PDMS. The gas layer allows for precise control of oxygen tension that will diffuse to the blood layer; the blood layer contains a 30 mm diffusion section to allow red blood cells to reach steady state saturation and a 5 mm observation section to imaging RBCs.
To prepare RBC for measurement, blood samples were washed and resuspended in 10% w/v BSA in PBS, and 0.5 μL of 100 mM therapeutic in DMSO was added to the sample. The sample was then incubated on a shaker plate at 37° C. for one hour. After incubation samples were washed again and 10 μL packed red blood cells was added to a solution of 288 μL 25% Human Serum Albumin (HAS) solution (Gemini Bio).
In this assay, we prepared samples identically to the preparation for blood flow by incubating with drug at 25% hematocrit, and then we diluted the samples to 1% hematocrit with […] drug in the dilution buffer.

Row | SMILES | FRET efficiency of HbS under deoxy conditions [1] | FRET efficiency of HbS under deoxy conditions ([1]; listed as Voxelotor) | P50 (hemoglobin oxygen binding affinity) relative to control [2] | modification of hemoglobin ([2]; samples diluted to 1% hematocrit with drug in the dilution buffer) [%] | IC50 [1] [µM] | FRET efficiency in dose response [1] | effect on FRET efficiency in the LOPAC pilot screen ([1]; LOPAC screen, mean of three independent screens, FIG. 4A)
1 | CC(C)n1nccc1-c1ncccc1COc1cccc(O)c1C=O [voxelotor] | decreased the FRET efficiency | reduced FRET efficiency | significantly (p<0.05) decreases P50; also recorded: large shift in P50; also recorded: significantly decreased the P50 | ~100 |  |  | 
2 | CN1C(=O)CCS(=O)(=O)C1c1ccc(Cl)cc1 (stereo not shown) [chlormezanone] |  |  | neither chlormezanone nor gabazine significantly shifted P50; also recorded: no significant (p>0.05) change in P50 |  | > 100 | decreased FRET efficiency in a dose-dependent manner | by far the largest effect
3 | COc1ccc(-c2ccc(=N)n(CCCC(=O)O)n2)cc1 [gabazine] |  |  | neither chlormezanone nor gabazine significantly shifted P50; also recorded: no significant (p>0.05) change in P50 |  |  | decreased FRET efficiency in a dose-dependent manner | 
